Experimental data taken from paper PMC9774939, “Optimization of Pyrazole Compounds as Antibiotic Adjuvants Active against Colistin- and Carbapenem-Resistant Acinetobacter baumannii” (Antibiotics, 2022).
Converted amounts (≈) assume the structure as drawn.

How the values were obtained:
[1] = system: eight reference strains, Gram-positive and Gram-negative; test: Agar diffusion test, direct antibacterial activity; assay type: cell-based; conditions: for direct-acting antibacterial activity (agar diffusion): eight reference strains; for growth inhibition zone diameter: agar diffusion, on Gram-positive organisms
Experimental: Compounds 3–40, 42, 44–47, and 49 (Scheme 1, Scheme 2, Scheme 3, Scheme 4 and Scheme 5) were subjected to a detailed investigation of their direct and synergistic antibacterial activity and potential cytotoxicity by using several methods. The direct antibacterial activity of these compounds was determined using both agar diffusion and broth microdilution methods. The former was initially used to identify potentially active compounds and was tested on eight reference strains, with representatives of both Gram-positive and Gram-negative clinically relevant bacterial species or genera (Figure 4).
The compounds were provided as powders and dissolved in 100% DMSO at a final concentration of 50 mg/mL. When a compound was not soluble, DMSO was further added to lower the concentration to 25 mg/mL or, when necessary, 12.5 or 6.25 mg/mL, until the compound was completely solubilized. The primary screen used in the evaluation of the direct antibacterial activity through an agar diffusion test was implemented on a 8-channel, automated liquid-handling platform (PerkinElmer Janus Integrator, Waltham, Mass.), which was located under a custom-made class 1000 laminar flow cabinet (Faster, Cornaredo, Italy). Briefly, 1-well plates (Thermo Fisher Scientific, Waltham, Mass.), previously filled with Mueller–Hinton Agar medium, were inoculated with a suspension of the bacterium in a sterile 0.9% NaCl solution containing 1.5 × 10^8 CFU/mL, using a sterile swab. Indicator organisms included 4 Gram-positive (Bacillus subtilis ATCC 6633, Enterococcus faecalis ATCC 29212, Staphylococcus epidermidis ATCC 14990, and Streptococcus pyogenes ATCC 12344) and 4 Gram-negative (Escherichia coli CCUG^T, Klebsiella pneumoniae ATCC 13833, Pseudomonas aeruginosa ATCC 27853, and Acinetobacter baumannii ATCC 17978) strains, which were routinely propagated using Mueller–Hinton Agar plates. In total, 2 μL of each solution of compounds was dispensed on the plate surface (corresponding to 100, 50, 25, or 12.5 μg of compound according to its solubility). The controls included the solvent (100% DMSO), kanamycin, piperacillin, ceftazidime, vancomycin, and teicoplanin. The results were recorded as the diameter of the growth inhibition zone. The inhibition zones of the controls (max variation from expected diameter, ± 1 mm) were used as the validation criteria. The assays were performed at least in duplicate, and the position in which a single compound was spotted on the plate was randomly modified in any successive experiment.

[2] = system: bacterial reference strains; test: Broth microdilution MIC, direct activity; assay type: cell-based
Experimental: (§1) The minimum inhibitory concentration (MIC) and minimum bactericidal concentration (MBC) of the compounds were determined in triplicate using Mueller–Hinton broth and a bacterial inoculum of 5 × 10^5 CFU/mL, as recommended by the CLSI [26]. The minimum antibacterial concentration (MAC) of the compounds was determined in the presence of a fixed and subinhibitory concentration of colistin (as mentioned above).

Bacillus subtilis = test: Broth microdilution MIC; assay type: cell-based; conditions: compound alone
Experimental: as §1

Enterococcus faecalis = test: Broth microdilution MIC; assay type: cell-based; conditions: compound alone
Experimental: as §1

Staphylococcus aureus = test: Broth microdilution MIC; assay type: cell-based; conditions: compound alone
Experimental: as §1

Streptococcus pyogenes = test: Broth microdilution MIC; assay type: cell-based; conditions: compound alone
Experimental: as §1

Escherichia coli CCUG^T = test: MAC determination in the presence of subinhibitory colistin; assay type: cell-based; set-up: key to MAC Eco: -: No synergistic activity; conditions: for MAC Eco: in the presence of 0.5 × MIC colistin; for MIC/MAC Ratio Eco: minimal ratio of MIC of compound alone to MAC with 0.5 × MIC colistin
Experimental: as §1

[3] = system: Klebsiella pneumoniae ATCC 13833; test: as above; assay type: cell-based; set-up: key to MAC Kpn: -: No synergistic activity; conditions: for MAC Kpn: in the presence of 0.5 × MIC colistin; for MIC/MAC Ratio Kpn: minimal ratio of MIC of compound alone to MAC with 0.5 × MIC colistin
Experimental: as §1

[4] = system: Acinetobacter baumannii ATCC 17978; test: as above; assay type: cell-based; set-up: key to MAC Aba: -: No synergistic activity; conditions: for MAC Aba: in the presence of 0.5 × MIC colistin; for MIC/MAC Ratio Aba: minimal ratio of MIC of compound alone to MAC with 0.5 × MIC colistin
Experimental: as §1

| MIC (Bacillus subtilis) | MIC (Enterococcus faecalis) | MIC (Staphylococcus aureus) | MIC (Streptococcus pyogenes) | MIC/MAC Ratio Kpn [3] | MIC/MAC Ratio Aba [4] | SMILES | direct-acting antibacterial activity (agar diffusion) [1] | MIC [2] | melting point | growth inhibition zone diameter [1] | MAC Eco (Escherichia coli CCUG^T) | MIC/MAC Ratio Eco (Escherichia coli CCUG^T) | MAC Kpn [3] | MAC Aba [4] |
| --- | --- | --- | --- | --- | --- | --- | --- | --- | --- | --- | --- | --- | --- | --- |
|  |  |  |  |  |  | C[C@H](NC(=O)c1cnn(-c2ccccc2)c1-n1cccc1)C(=O)O [Compound 16, (S)-2-[[[1-Phenyl-5-(1H-pyrrol-1-yl)-1H-pyrazol-4-yl]carbonyl]amino]propanoic Acid] | broad-spectrum, though moderate, direct-acting antibacterial activity | ≥ 512 µg/mL | 142 to 145 °C |  |  |  |  |  |
|  |  |  |  |  |  | C[C@H](NC(=O)CNC(=O)c1cnn(-c2ccccc2)c1-n1cccc1)C(=O)O [Compound 19, N-[N-[[1-Phenyl-5-(1H-pyrrol-1-yl)-1H-pyrazol-4-yl]carbonyl]glycyl]-L-alanine] | broad-spectrum, though moderate, direct-acting antibacterial activity | ≥ 512 µg/mL | 80 to 84 °C |  |  |  |  |  |
|  |  |  |  | 16 |  | CCOC(=O)[C@@H](NC(=O)c1cnn(-c2ccccc2)c1-n1cccc1)C(C)C [Compound 13, Ethyl (S)-3-Methyl-2-[[[1-phenyl-5-(1H-pyrrol-1-yl)-1H-pyrazol-4-yl]carbonyl]amino]butanoate] |  |  | 75 to 78 °C |  | 64 µg/mL | 8 | 32 µg/mL | - |
|  |  |  |  | 16 |  | Cc1c(C(=O)NC23CC4CC(CC(O)(C4)C2)C3)nn(-c2ccccc2)c1-n1cccc1 [Compound 27, N-(Adamantan-3-ol-1-yl)-4-methyl-1-phenyl-5-(1H-pyrrol-1-yl)-1H-pyrazole-3-carboxamide] |  |  | 137 to 138 °C |  | 32 µg/mL | 16 | 32 µg/mL | - |
| 32 µg/mL (≈ 60.6 µM) | 32 µg/mL (≈ 60.6 µM) | 32 µg/mL (≈ 60.6 µM) | 16 µg/mL (≈ 30.3 µM) |  |  | CCOC(=O)NS(=O)(=O)c1ccc(NC(=O)c2nn(-c3ccc(Cl)cc3)c(-n3cccc3)c2C)cc1 [Compound 47, Ethyl [[4-[1-(4-Chlorophenyl)-4-methyl-5-(1H-pyrrol-1-yl)-1H-pyrazole-3-carboxamido]phenyl]sulfonyl]carbamate] |  |  | 188 to 190 °C | up to 18 mm |  |  |  |  |
| 32 µg/mL (≈ 76 µM) | 32 µg/mL (≈ 76 µM) | 32 µg/mL (≈ 76 µM) | 16 µg/mL (≈ 38 µM) |  |  | Cc1c(C(=O)Nc2ccccc2C(=O)O)nn(-c2ccc(Cl)cc2)c1-n1cccc1 [Compound 44, 2-[[[1-(4-Chlorophenyl)-4-methyl-5-(1H-pyrrol-1-yl)-1H-pyrazol-3-yl]carbonyl]amino]benzoic Acid] |  |  | 270 to 272 °C | up to 18 mm |  |  |  |  |
|  |  |  |  |  | 16 | Cc1c(C(=O)N[C@@H](Cc2ccccc2)C(=O)OC(C)(C)C)nn(-c2c(Cl)cc(Cl)cc2Cl)c1-n1c(C)ccc1C [Compound 39, tert-Butyl (S)-3-Phenyl-2-[[[4-methyl-1-(2,4,6-trichlorophenyl)-5-(2,5-dimethyl-1H-pyrrol-1-yl)-1H-pyrazol-3-yl]carbonyl]amino]propanoate] |  |  | 72 to 81 °C |  | - |  | - | 32 µg/mL |
| 32 µg/mL (≈ 76 µM) | 32 µg/mL (≈ 76 µM) | 32 µg/mL (≈ 76 µM) | 16 µg/mL (≈ 38 µM) |  |  | Cc1c(C(=O)Nc2ccc(C(=O)O)cc2)nn(-c2ccc(Cl)cc2)c1-n1cccc1 [Compound 40, 4-[[[1-(4-Chlorophenyl)-4-methyl-5-(1H-pyrrol-1-yl)-1H-pyrazol-3-yl]carbonyl]amino]benzoic Acid] |  |  | > 250 °C | up to 18 mm |  |  |  |  |
|  |  |  |  |  |  | O=C(O)CNC(=O)c1cnn(-c2ccccc2)c1-n1cccc1 [Compound 15, [[[1-Phenyl-5-(1H-pyrrol-1-yl)-1H-pyrazol-4-yl]carbonyl]amino]acetic Acid] | broad-spectrum, though moderate, direct-acting antibacterial activity | ≥ 512 µg/mL | 191 to 194 °C |  |  |  |  |  |
|  |  |  |  | 32 | 16 | Cc1c(C(=O)N(CCO)Cc2ccccc2)nn(-c2ccc(Cl)cc2)c1-n1cccc1 [Compound 31, N-Benzyl-1-(4-chlorophenyl)-N-(2-hydroxyethyl)-4-methyl-5-(1H-pyrrol-1-yl)-1H-pyrazole-3-carboxamide] |  |  |  |  | 32 µg/mL | 16 | 16 µg/mL | 32 µg/mL |
|  |  |  |  |  |  | CC(C)[C@H](NC(=O)c1cnn(-c2ccccc2)c1-n1cccc1)C(=O)O [Compound 17, (S)-3-Methyl-2-[[[1-phenyl-5-(1H-pyrrol-1-yl)-1H-pyrazol-4-yl]carbonyl]amino]butanoic Acid] | broad-spectrum, though moderate, direct-acting antibacterial activity | ≥ 512 µg/mL | 150 to 152 °C |  |  |  |  |  |
|  |  |  |  | 8 | 8 | Cc1c(C(=O)N2CCN(C)CC2)nn(-c2ccc(Cl)cc2)c1-n1cccc1 [Compound 28, [1-(4-Chlorophenyl)-4-methyl-5-(1H-pyrrol-1-yl)-1H-pyrazol-3-yl](4-methylpiperazin-1-yl)methanone] |  |  | 178 to 182 °C |  | 64 µg/mL | 8 | 64 µg/mL | 64 µg/mL |

| SMILES | MIC (Bacillus subtilis) | MIC (Enterococcus faecalis) | MIC (Staphylococcus aureus) | MIC (Streptococcus pyogenes) | MIC/MAC Ratio Kpn [3] | MIC/MAC Ratio Aba [4] | direct-acting antibacterial activity (agar diffusion) [1] | MIC [2] | melting point | growth inhibition zone diameter [1] | MAC Eco (Escherichia coli CCUG^T) | MIC/MAC Ratio Eco (Escherichia coli CCUG^T) | MAC Kpn [3] | MAC Aba [4] |
| --- | --- | --- | --- | --- | --- | --- | --- | --- | --- | --- | --- | --- | --- | --- |
| Cc1c(C(=O)Nc2cccc(C(=O)O)c2)nn(-c2ccc(Cl)cc2)c1-n1cccc1 [Compound 42, 3-[[[1-(4-Chlorophenyl)-4-methyl-5-(1H-pyrrol-1-yl)-1H-pyrazol-3-yl]carbonyl]amino]benzoic Acid] | 32 µg/mL (≈ 76 µM) | 32 µg/mL (≈ 76 µM) | 32 µg/mL (≈ 76 µM) | 16 µg/mL (≈ 38 µM) |  |  | broad-spectrum, though moderate, direct-acting antibacterial activity | ≥ 512 µg/mL | 248 to 250 °C | up to 18 mm |  |  |  |  |
| CC(C)(C)OC(=O)Nc1c(C(=O)NCc2ccc(Br)cc2)cnn1-c1ccccc1 [Compound 20, N-(4-Bromobenzyl)-5-(tert-butoxycarbonylamino)-1-phenyl-1H-pyrazole-4-carboxamide] |  |  |  |  | 8 | 8 |  |  | 175 to 176 °C |  | - |  | 64 µg/mL | 64 µg/mL |
| CC(C)(C)OC(=O)Nc1c(C(=O)NCc2ccc(-c3ccc(OC(F)(F)F)cc3)cn2)cnn1-c1ccc([N+](=O)[O-])cc1 [Compound 22, 5-(tert-Butoxycarbonylamino)-1-(4-nitrophenyl)-N-[[5-(4-trifluoromethoxyphenyl)pyridin-2-yl]methyl]-1H-pyrazole-4-carboxamide] |  |  |  |  | 8 | 8 |  |  | 197 to 199 °C |  | - |  | 64 µg/mL | 64 µg/mL |
